Source: patent publication US20230114728A1 (Venatorx Pharmaceuticals, Inc., priority 2019, published 2023)
≈ marks a conversion by molar mass, not a printed value. Read-outs that look alike come from different tables or passages of the source.

Assays:
[1] = system: K. pneumoniae 848844 producing SHV-11 and KPC-2; experiment: Broth microdilution MIC in CAMHB; type: cell-based; conditions: Klebsiella pneumoniae, read-out: Minimum Inhibitory Concentration, K. pneumoniae 848844
Experimental: (§1) Example III: In Vitro Antibacterial Assays
(§2) To determine the ability of test compounds to inhibit the growth of bacterial strains, classic cell based broth microdilution minimum inhibitory concentration (MIC) assays were employed. MIC assays are performed according to CLSI methods except where otherwise noted (CLSI, 2018 and CLSI, 2019). The reference type strain E. coli ATCC 25922; the wild-type parent strain E. coli AG100; the hyper-permeable E. coli 901C and E. coli D22; and the E. coli AG100A strain lacking the acrAB efflux pump encoding genes were used to determine the ability of the PBP inhibitors to penetrate the outer membrane of gram-negative bacteria and inhibit bacterial growth. […] The P. aeruginosa ATCC 27853 and A. baumannii ATCC 19606, along with the hyper-permeable P. aeruginosa ATCC 35151 and an engineered efflux pump-compromised strain of P. aeruginosa (ΔmexAB-oprM) were used to determine the ability of PBP inhibitors to penetrate the outer membrane of P. aeruginosa and A. baumannii and assess antibacterial activity against these important gram-negative organisms.
(§3) Briefly, cryo-preserved bacterial cultures of challenge strains are streaked for isolation on appropriate agar medium, in this case cation-adjusted Mueller Hinton agar. Following incubation to allow growth of the colonies, plates are sealed with parafilm and stored refrigerated for up to two weeks. For preparation of assay inoculum and to ensure low variability, at least 5 colonies are picked from the agar plates with an inoculating loop and aseptically transferred to a culture tube containing 3 mL of cation-adjusted Mueller Hinton broth (CAMHB). The broth culture is grown for 3-5 hours at 37° C. with shaking at 200 rpm. Meanwhile, 2-fold serial dilutions of test compounds are conducted in a 96-well plate with a final volume of 75 μL per well at 2-fold the final desired concentration. After the dilution plates are set up the growing cultures are then diluted in a cuvette containing CAMHB and the optical density is measured at 600 nm. The inoculum is diluted such that 75 μL of this culture in CAMHB results in a starting bacterial concentration of 2-8×10^5 CFU/mL when added to the dilution plates. The plates are incubated for 16-20 hours for Enterobacteriaceae and Pseudomonas and 20-24 hours for Acinetobacter at 37° C. The MIC values are read visually as the lowest concentration well with no bacterial growth.

[2] = system: E. coli 901C; experiment: Broth microdilution MIC in CAMHB; type: cell-based; conditions: Escherichia coli, MHB, read-out: Minimum Inhibitory Concentration, E. coli 901C
Experimental: as §1, §2, §3

[3] = system: A. baumannii ATCC 19606; experiment: Broth microdilution MIC in CAMHB; type: cell-based; conditions: Acinetobacter baumannii, ATCC19606; MHB; read-out: Minimum Inhibitory Concentration, A. baumannii ATCC 19606
Experimental: as §1, §2, §3

[4] = system: E. coli AG100; experiment: Broth microdilution MIC in CAMHB; type: cell-based; conditions: Escherichia coli, MHB, read-out: Minimum Inhibitory Concentration, E. coli AG100
Experimental: as §1, §2, §3

[5] = system: E. coli D22; experiment: Broth microdilution MIC in CAMHB; type: cell-based; conditions: Escherichia coli, MHB, read-out: Minimum Inhibitory Concentration, E. coli D22
Experimental: as §1, §2, §3

[6] = system: K. pneumoniae UMM producing SHV-5 and KPC-2; experiment: Broth microdilution MIC in CAMHB; type: cell-based; conditions: Klebsiella pneumoniae, read-out: Minimum Inhibitory Concentration, K. pneumoniae UMM
Experimental: as §1, §2, §3

[7] = system: K. pneumoniae SI-117 producing VIM-1; experiment: Broth microdilution MIC in CAMHB; type: cell-based; conditions: Klebsiella pneumoniae, read-out: Minimum Inhibitory Concentration, K. pneumoniae SI-117
Experimental: as §1, §2, §3

[8] = system: P. aeruginosa ATCC 35151; experiment: Broth microdilution MIC in CAMHB; type: cell-based; conditions: Pseudomonas aeruginosa, ATCC35151; MHB; hyper-permeable strain; read-out: Minimum Inhibitory Concentration, P. aeruginosa ATCC 35151
Experimental: as §1, §2, §3

[9] = system: P. aeruginosa ATCC 27853; experiment: Broth microdilution MIC in CAMHB; type: cell-based; conditions: Pseudomonas aeruginosa, ATCC27853; MHB; read-out: Minimum Inhibitory Concentration, P. aeruginosa ATCC 27853
Experimental: as §1, §2, §3

[10] = system: E. coli ATCC 25922; experiment: Broth microdilution MIC in CAMHB; type: cell-based
Experimental: as §1, §2, §3

[11] = system: E. coli AG100A; experiment: Broth microdilution MIC in CAMHB; type: cell-based; conditions: Escherichia coli, read-out: Minimum Inhibitory Concentration, E. coli AG100A
Experimental: as §1, §2, §3

[12] = system: P. aeruginosa (ΔmexAB-oprM); experiment: Broth microdilution MIC in CAMHB; type: cell-based; conditions: Pseudomonas aeruginosa, read-out: Minimum Inhibitory Concentration, P. aeruginosa ΔmexAB-OprM
Experimental: as §1, §2, §3

[13] = biological target: T1, E. coli K12 PBP3 (Escherichia coli, UniProt P0AD68); experiment: biochemical; type: binding
T1 construct: made in house
Text: (§4) Example I: Experimental Method for Penicillin-Binding Protein Binding Assays with Bocillin-FL Via Fluorescence Polarization
(§5) To determine the ability of boronic acid-based test PBP inhibitors to bind Penicillin Binding Proteins (PBPs), Bocillin-FL (fluorescently-labeled penicillin V; ThermoFisher Scientific) was used in a fluorescence polarization (FP) competition binding assay to assess inhibitor binding to PBP2, PBP3 or PBP4 from Escherichia coli (K12), PBP3 from Pseudomonas aeruginosa (PA01), PBP1a, PBP2 and PBP3 from Acinetobacter baumannii (ATCC 19606), and PBP2 from Neiserria gonorrheae (FA19). PBPs were cloned and purified as described previously (E. coli PBPs, King, D. T, et al., ACS Infectious Diseases 2015, 1, 175-184; P. aeruginosa PBP3, Han et. al., PNAS 2010, 107 (51), 22002-22007; A. baumannii PBPs, Penwell et. al., Antimicrob. Agents Chemother. 2015, 59 (3), 1680-1689; N. gonorrhoeae PBP2, Singh et. al., J Biol. Chem. 2019, 294 (38), 14020-14032). To establish assay conditions for competition binding, enzyme titration/saturation binding experiments were initially performed. Bocillin-FL was prepared at 0.2 μM in a buffer comprised of 50 mM Hepes (pH 8.0), 300 mM NaCl and 5% (v/v) glycerol for reactions with E. coli, P. aeruginosa and N. gonorrhoeae PBPs, and 25 mM Tris (pH 8.0), 200 mM NaCl and 10% (v/v) glycerol and 0.005% (v/v) Tween 20 for reactions with A. baumannii PBPs. Saturation binding was performed by mixing 40 μl of PBP solutions ranging in concentrations from 0-24 μM with 40 μl of the 0.2 μM Bocillin-FL solution, in individual wells of a black 384-well microplate. FP was measured immediately upon mixing (Excitation, 490 nm; Emission, 520 nm; g-factor, 0.96), using a Cytation3 (BioTek) microplate reader and measured continuously for up to 120 minutes. […] The competition binding assay (80 μl final volume) was validated using beta-lactams and PBPs at final concentrations of: 1.5 μM, E. coli PBP3; 0.75 μM, P. aeruginosa PBP3; 1 μM A. baumannii PBP1a; 2.5 μM A. baumannii PBP2; 0.2 μM A. baumannii PBP3; and […] N. gonorrhoeae PBP2. Bocillin-FL was at 0.1 μM (0.05 μM with A. baumannii PBP1a) and beta-lactam concentrations ranged from 0-1000 μM. […] Bocillin-FL was added and the FP immediately measured for up to 60 minutes (90 minutes for E. coli PBP2). […] The beta-lactam potency was reported as the concentration of beta-lactam required to reduce the amount of PBP bound-Bocillin-FL by 50% (EC50). […] Binding assays for boronic acid PBP inhibitors were performed in an identical fashion for the respective PBPs

[14] = biological target: T2, P. aeruginosa PBP3 (Pseudomonas aeruginosa, UniProt G3XD46); experiment: Bocillin-FL fluorescence polarization competition binding assay, P. aeruginosa PBP3; conditions: fluorescence polarization competition binding assay using Bocillin-FL
T2 construct: made in house
Text: as §4, §5

[15] = wild-type parent strain E. coli AG100
[16] = Escherichia coli, ATCC25922; MHB; E. coli ATCC 25922; read-out: Minimum Inhibitory Concentration, E. coli 25922

T2 sequence (G3XD46 whole entry): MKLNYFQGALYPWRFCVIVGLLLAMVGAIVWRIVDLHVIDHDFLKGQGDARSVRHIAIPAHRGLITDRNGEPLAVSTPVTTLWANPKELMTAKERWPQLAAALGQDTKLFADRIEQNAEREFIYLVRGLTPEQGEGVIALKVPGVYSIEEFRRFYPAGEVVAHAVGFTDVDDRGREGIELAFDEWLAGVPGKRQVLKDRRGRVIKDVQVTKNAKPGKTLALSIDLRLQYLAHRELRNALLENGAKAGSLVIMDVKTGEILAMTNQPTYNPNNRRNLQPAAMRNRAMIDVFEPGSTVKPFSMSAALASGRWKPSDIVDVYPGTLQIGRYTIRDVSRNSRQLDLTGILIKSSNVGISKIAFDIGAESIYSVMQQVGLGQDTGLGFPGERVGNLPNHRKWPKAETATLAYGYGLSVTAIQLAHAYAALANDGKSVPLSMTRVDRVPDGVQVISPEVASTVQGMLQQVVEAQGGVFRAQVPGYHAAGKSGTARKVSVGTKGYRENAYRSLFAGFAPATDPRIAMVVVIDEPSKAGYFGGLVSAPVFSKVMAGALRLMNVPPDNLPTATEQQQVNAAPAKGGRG
T1 sequence (P0AD68 1-577): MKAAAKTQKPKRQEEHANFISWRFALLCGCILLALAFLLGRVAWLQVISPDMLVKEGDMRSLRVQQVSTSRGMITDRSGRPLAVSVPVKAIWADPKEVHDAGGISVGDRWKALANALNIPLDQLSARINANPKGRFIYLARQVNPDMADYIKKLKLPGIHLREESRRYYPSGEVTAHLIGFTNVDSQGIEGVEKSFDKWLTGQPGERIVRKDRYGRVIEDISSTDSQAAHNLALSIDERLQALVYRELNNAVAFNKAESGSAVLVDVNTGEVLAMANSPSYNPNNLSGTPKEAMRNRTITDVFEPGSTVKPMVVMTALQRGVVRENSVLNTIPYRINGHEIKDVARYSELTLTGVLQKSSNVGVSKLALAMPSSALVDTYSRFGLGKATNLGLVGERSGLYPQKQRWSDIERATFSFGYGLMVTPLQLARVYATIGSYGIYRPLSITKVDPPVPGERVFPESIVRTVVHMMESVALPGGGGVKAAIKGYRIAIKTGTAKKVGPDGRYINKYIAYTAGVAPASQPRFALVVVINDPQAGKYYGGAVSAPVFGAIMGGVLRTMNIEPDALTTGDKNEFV

Row | SMILES | MIC [1] [mg/L] | MIC ([2]; hyper-permeable E. coli 901C) [mg/L] | MIC [3] [mg/L] | MIC [4, 15] [mg/L] | MIC ([5]; hyper-permeable E. coli D22) [mg/L] | MIC [6] [mg/L] | MIC [7] [mg/L] | MIC [8] [mg/L] | MIC [9] [mg/L] | MIC [10, 16] [mg/L] | MIC [11] [mg/L] | MIC [12] [mg/L] | EC50 [13] [µM] | P. aeruginosa PBP3 Potency [14] | MIC ([2]; E. coli 901C (hyper-permeable)) [mg/L] | MIC ([4]; E. coli AG100 (wild-type parent)) [mg/L] | MIC ([5]; E. coli D22 (hyper-permeable)) [mg/L] | MIC ([10]; Escherichia coli, ATCC25922; E. coli ATCC 25922; MHB; read-out: Minimum Inhibitory Concentration, E. coli 25922) [mg/L]
1 | C[C@H]1CN(CCF)C(=O)C(=O)N1C(=O)NC(C(=O)N[C@H]1Cc2cccc(C(=O)O)c2OB1O)c1c(F)cc(O)cc1F (stereo partly drawn) [Example 233, (3R)-3-(2-(2,6-difluoro-4-hydroxyphenyl)-2-((S)-4-(2-fluoroethyl)-6-methyl-2,3-dioxopiperazine-1-carboxamido)acetamido)-2-hydroxy-3,4-dihydro-2H-benzo[e][1,2]oxaborinine-8-carboxylic acid] | 8 to 16 (≈ 13.5 to 27 µM) | 32 to 64 (≈ 54 to 108 µM) | > 128 | 32 to 64 (≈ 54 to 108 µM) | 32 to 64 (≈ 54 to 108 µM) | < 0.25 | 2 to 4 (≈ 3.38 to 6.75 µM) | 8 to 16 (≈ 13.5 to 27 µM) | > 128 | 8 to 16 (≈ 13.5 to 27 µM) | 32 to 64 (≈ 54 to 108 µM) | > 128 | < 30 | D (D represents a potency <10 μM) | – | – | – | –
2 | C[C@H]1CN(CCN)C(=O)C(=O)N1C(=O)NC(C(=O)N[C@H]1Cc2cccc(C(=O)O)c2OB1O)c1c(F)cc(O)cc1F (stereo partly drawn) [Example 234, (3R)-3-(2-((S)-4-(2-aminoethyl)-6-methyl-2,3-dioxopiperazine-1-carboxamido)-2-(2,6-difluoro-4-hydroxyphenyl)acetamido)-2-hydroxy-3,4-dihydro-2H-benzo[e][1,2]oxaborinine-8-carboxylic acid] | 8 to 16 (≈ 13.6 to 27.2 µM) | 32 to 64 (≈ 54.3 to 109 µM) | > 128 | 32 to 64 (≈ 54.3 to 109 µM) | 8 to 16 (≈ 13.6 to 27.2 µM) | 0.5 to 1 (≈ 0.848 to 1.7 µM) | 2 to 4 (≈ 3.39 to 6.79 µM) | 2 to 4 (≈ 3.39 to 6.79 µM) | > 128 | 8 to 16 (≈ 13.6 to 27.2 µM) | 32 to 64 (≈ 54.3 to 109 µM) | 8 to 16 (≈ 13.6 to 27.2 µM) | < 30 | D (D represents a potency <10 μM) | – | – | – | –
3 | NS(=O)(=O)Nc1cccc([C@H](NC(=O)N2CCN(CC(F)(F)F)C(=O)C2=O)C(=O)N[C@H]2Cc3cccc(C(=O)O)c3OB2O)c1 (single isomer, unassigned) [Example 216] | > 128 | – | > 128 | – | – | > 128 | > 128 | 8 to 16 (≈ 12.2 to 24.4 µM) | > 128 | – | 32 to 64 (≈ 48.8 to 97.5 µM) | 32 to 64 (≈ 48.8 to 97.5 µM) | 30 to 500 | C (C represents a potency between 10 and 30 μM) | 2 to 4 (≈ 3.05 to 6.09 µM) | > 128 | 8 to 16 (≈ 12.2 to 24.4 µM) | > 128
